This passage reports IC50, Ki and inhibition results from ChEMBL document CHEMBL6134826, “Cross-subclass metallo-β-lactamase inhibitors: From structural and catalytic commonalities guiding design” (Eur J Med Chem, 2025).

A value given as a limit tells only on which side of the number the result lay.

The nature of test [1]: Inhibition of BcII (unknown origin). On the set-up: species or system Bacteria.
A short description of test [2]: Inhibition of L1 (unknown origin). On the set-up: species or system Bacteria.
Test [3] in a line: Binding affinity to VIM-2 (unknown origin) assessed as inhibition constant. On the set-up: species or system Bacteria.
Test [4] can be described thus: Binding affinity to Sfh-1 (unknown origin) assessed as inhibition constant. On the set-up: species or system Bacteria.
Test [5] is described as follows: Inhibition of IMP-1 (unknown origin). On the set-up: species or system Bacteria.
Test [6] deals with T1, Metallo-beta-lactamase type 2 (Bacteria, UniProt C7C422). Description: Inhibition of NDM-1 (unknown origin) using nitrocefin as substrate by colorimetric assay.
T1 sequence (C7C422 whole entry): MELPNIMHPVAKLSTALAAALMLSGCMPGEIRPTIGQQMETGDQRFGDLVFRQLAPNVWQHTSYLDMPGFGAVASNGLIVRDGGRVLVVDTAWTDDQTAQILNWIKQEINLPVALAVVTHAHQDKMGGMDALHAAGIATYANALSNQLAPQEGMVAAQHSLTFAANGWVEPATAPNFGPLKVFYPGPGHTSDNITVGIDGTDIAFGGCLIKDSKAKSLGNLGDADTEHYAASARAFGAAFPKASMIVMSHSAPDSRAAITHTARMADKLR
For test [7], the system named is Bacteria. Description: Inhibition of IMP-1 (unknown origin) at 100 uM relative to control.
In test [8] the test system is Bacteria. Description: Inhibition of L1 (unknown origin) at 100 uM relative to control.
Test [9] in a line: Inhibition of Sfh-1 (unknown origin). On the set-up: species or system Bacteria.
Test [10] is described as follows: Binding affinity to L1 (unknown origin) assessed as inhibition constant. On the set-up: species or system Bacteria.
The target of test [11] is T1, Metallo-beta-lactamase type 2. Description: Inhibition of NDM-1 (unknown origin).
The nature of test [12]: Inhibition of CphA (unknown origin). On the set-up: species or system Bacteria.
Test [13] in a line: Inhibition of ImiS (unknown origin). On the set-up: species or system Bacteria.
The nature of test [14]: Binding affinity to IMP-1 (unknown origin) assessed as inhibition constant. On the set-up: species or system Bacteria.
Test [15] deals with T1, Metallo-beta-lactamase type 2. Description: Inhibition of NDM-1 (unknown origin)using fluorescent cephalosporin as substrate preincubated for 10 mins followed by substrate addition by fluorescence based assay.
Test [16] in a line: Inhibition of recombinant VIM-2 (unknown origin). On the set-up: species or system Bacteria.
The nature of test [17]: Binding affinity to BcII (unknown origin) assessed as inhibition constant. On the set-up: species or system Bacteria.
For test [18], the target named is T1, Metallo-beta-lactamase type 2. Briefly: Binding affinity to NDM-1 (unknown origin) assessed as inhibition constant.
Test [19] deals with Metallo-beta-lactamase type 2 (Bacteria) (UniProt C7C422). Description: Inhibition of NDM-1 (unknown origin) at 100 uM relative to control.
Sequence of Metallo-beta-lactamase type 2 (Bacteria) (C7C422 whole entry): as above

As a reminder, the IC50 is the point on the concentration scale where inhibition reaches its midpoint. Consider `CC1(C)[C@H](C(=O)O)N2C(=O)[C@H](CS)[C@H]2S1(=O)=O`, for which the results for the IC50 in test [1] and in [2] were 12000 nM and 300 nM, respectively.

By Ki is commonly meant the equilibrium dissociation constant of an inhibitor or competing ligand from its target. Take `C[C@]1(Cn2ccnn2)[C@H](C(=O)O)N2C(=O)C[C@H]2S1(=O)=O` [TAZOBACTAM]: the results for the Ki in test [3] and in test [4] were 128000 nM and 62200 nM, respectively.

For the compound `O=c1c2ccccc2[se]n1-c1ccccc1` [EBSELEN], the IC50 worked out at 1590 nM in [5] and 72 nM in [6].

As usually defined, the inhibition is the change of the read-out against control, counted positive when it falls. A high value points to strong suppression. As to `CC(=O)OC1C2CCC(C(=O)O)N2P1(=O)O` (centres undefined), the inhibition in the test with Bacteria [7] and with Bacteria [8] was 70% throughout.

As to `O=C(O)[C@@H]1CS[C@H]2CS[C@H](CS)N21`, the IC50 in test [9] was 260 nM. Also, the Ki in [3] was determined as 2900 nM; in test [10] it was 12000 nM.

As to `O=C(O)c1cccc2c1OB(O)[C@@H](NC(=O)C1CCCCC1)C2`, the IC50 in [11] was determined as 2040 nM; in [12] it was 4420 nM.

In the case of `CCN(CC)c1ccc2cc(C(=O)NCCC[Se]C#N)c(=O)oc2c1`, the half-inhibitory concentration (IC50) in [13] was found to be 560 nM; in test [5], 120 nM; in [6], 81 nM.

With `CNCc1ccc([C@@H]2C[C@@H](SC3=C(C(=O)O)N4C(=O)[C@H]([C@@H](C)O)[C@H]4[C@H]3C)CN2)cc1`, in test [14], the Ki turned out to be 180 nM.

For `CCN(CC)C(=S)SSC(=S)N(CC)CC` [DISULFIRAM], the half-inhibitory concentration (IC50) in [13] stood at 3600 nM; in test [5], 2900 nM; in [6], 130 nM.

For `CC(C)c1cccc2c(-c3ccc(CS(C)(=O)=O)c(Cl)c3)c(C(=O)O)[nH]c12`, the figures for the half-inhibitory concentration (IC50) in test [2], in test [12] and in test [15] were 50.1 nM, 1260 nM and 1.26 nM, respectively.

Turning to `NCCN[C@H]1CC[C@H](CC(=O)N[C@H]2Cc3cccc(C(=O)O)c3OB2O)CC1`, the IC50 in test [16] is 5 nM; in [2] it was more than 10000 nM; in [12], 2510 nM.

As for `O=C(O)c1cccc2c1OB(O)C(SCc1ccccc1)C2` (centres undefined), the IC50 in test [2] amounted to 5010 nM; in test [12], 501 nM.

Take `O=C(N[C@@H](C(=O)O)c1ccc(Cn2cnnn2)s1)[C@@H](S)CCc1ccccc1`: the IC50 in test [2] amounted to 500 nM; in test [5] it was 90 nM.

In the case of `CC(C)c1cccc2c(-c3cc(Cl)cc(Cl)c3)c(C(=O)O)[nH]c12`, the IC50 in [2] is 501 nM; in test [12] it was 630 nM.

`O=C(CCn1[se]c2ccccc2c1=O)Oc1ccc2ccc(=O)oc2c1`: the results for the IC50 in test [13], in test [5] and in [6] were 12500 nM, 970 nM and 25 nM, respectively.

Consider `CC1(C)[C@H](C(=O)O)N2C(=O)[C@@H](CS)[C@H]2S1(=O)=O`, for which the IC50 in [1] was 1400 nM; in test [2] it was 100 nM.

As for `C[C@H](NC(=O)CCS)C(=O)O`, the Ki in test [17] was found to be 5600 nM; in test [10] it was 6500 nM; in test [14], 68000 nM.

Turning to `CC(C)c1cccc2c(-c3ccc(Cn4cncn4)cc3)c(C(=O)O)[nH]c12`, the values for the IC50 in test [2], in test [12] and in test [15] were 5010 nM, 398 nM and 1.58 nM, respectively.

Take `CCOC(=O)[C@]1(CS)N[C@H](C(=O)O)C(C)(C)S1`: the Ki in [18] is 8000 nM. The IC50 amounted to 100000 nM in [9] and 28000 nM in test [2].

On to `SCC1SCC2Nc3ccccc3N21` (centres undefined), for which the Ki in test [18] was 77000 nM. For the same compound, the results for the IC50 in test [9] and in test [2] were 1400 nM and 620 nM, respectively.

As to `CCOC(=O)[C@]1(CS)N[C@H](C(=O)O)CS1`, in test [18], the Ki was found to be 440 nM. The half-inhibitory concentration (IC50) worked out at 1300 nM in test [9] and 20000 nM in test [2].

Regarding `O=C(CCn1[se]c2ccccc2c1=O)ON1C(=O)CCC1=O`, the figures for the IC50 in test [13], in [5] and in test [6] were 7650 nM, 530 nM and 45 nM, respectively.

Regarding `CCN(CC)c1ccc2c(-c3ccccc3C(=O)OCCn3[se]c4ccccc4c3=O)c3ccc(N(CC)CC)cc3[o+]c2c1`, the concentration for half-maximal inhibition (IC50) in [13] was found to be 8620 nM; in [5], 460 nM; in test [6], 16 nM.

`CC1(C)S[C@H]2CS[C@H](CS)N2[C@@H]1C(=O)O` yielded an IC50 in [9] of 360 nM. Besides, the Ki in [3] worked out at 6000 nM; in [10], 11000 nM.

For the compound `O=C(O)C(=O)CBr` [BROMOPYRUVATE], the inhibition stood at 90.9% in test [19] and 33.3% in the test with Bacteria [8]. Further, in test [6], 2570 nM corresponded to half-maximal inhibition (IC50).
